Test: T1 relaxation measurements (water proton relaxivity, 20 MHz NMR spectrometer, inversion-recovery)
Format: physicochemical
Settings: Bo = 0.47 T, per Gd^3+ ion
Procedure: T1 Relaxation Measurements […] […] All of the three generations of cyclosiloxane-core dendrimers (polymer (A)˜(C)) were analyzed and compared with a commercial contrast agent, namely, Magnevist. […] 1, polymers (A)˜(D) for Magnetic resonance imaging (MRI) were developed. It consists of paramagnetic gadolinium ions chelated to DTPA/benzyl-DTPA molecules which in turn were attached to the peripheral of the cyclic dendritic structure.

CNC[C@H](O)[C@@H](O)[C@H](O)[C@H](O)CO.CNC[C@H](O)[C@@H](O)[C@H](O)[C@H](O)CO.O=C([O-])CN(CCN(CC(=O)[O-])CC(=O)O)CCN(CC(=O)[O-])CC(=O)O.[Gd+3] [Magnevist ™]
Relaxivity/Gd^3+ ion (ionic) r1: 4.2 (mM · s) − 1
